ChEMBL document CHEMBL3885861, “Open TG-GATES”

Species: Rattus norvegicus
Assay: Open TG-GATES - Regimen: Daily Repeat
Type: toxicity, organism-based, Sprague-Dawley
Design: regimen Daily Repeat, gender Male, age 6 weeks
Conditions: in vivo, po, 0 mg/kg, route gavage, dose level Control; for APTT / Bas / Eos / Fbg / Hb / Ht / Lym / MCH / MCHC / MCV / Mono / Neu / PT / Plat / RBC / Ret / WBC: tissue Blood; for KIDNEY_L / KIDNEY_R / KIDNEY_TOTAL: tissue Kidney; for LIVER: tissue Liver; for A/G / ALP / ALT / AST / BUN / CRE / Ca / Cl / DBIL / GLC / IP / K / LDH / Na / PL / RALB / TBIL / TC / TG / TP / gamma-GTP: tissue Plasma

## CC(=O)Oc1cc(C(C)C)c(OCCN(C)C)cc1C [MOXISYLYTE]
72 h, time 3 day
  TERMINAL_BW: 216.7 g
  APTT: 21.2 s
  Bas: 0%
  Eos: 1%
  Fbg: 327.4 mg/dL
  Hb: 13.7 g/dL
  Ht: 39.2%
  Lym: 81.2%
  MCH: 20.9 pg
  MCHC: 34.9%
  MCV: 59.9 fL
  Mono: 2.4%
  Neu: 14.2%
  PT: 16.5 s
  Plat: 116.4 x10_4/uL
  RBC: 655.4 x10_4/ul
  Ret: 6.2%
  WBC: 102.1 x10_2/uL
  KIDNEY_L: 0.9 g
  KIDNEY_R: 1 g
  KIDNEY_TOTAL: 1.9 g
  LIVER: 10.3 g
  A/G: 1.2
  ALP: 1472.6 IU/L
  ALT: 42.8 IU/L
  AST: 70.4 IU/L
  BUN: 17.2 mg/dL
  CRE: 0.2 mg/dL
  Ca: 10.8 mg/dL
  Cl: 106.6 meq/L
  DBIL: 0.004 mg/dL
  GLC: 181.4 mg/dL
  IP: 7 mg/dL
  K: 4.2 meq/L
  LDH: 202.6 IU/L
  Na: 142.4 meq/L
  PL: 154.2 mg/dL
  RALB: 3.1 g/dL
  TBIL: 0.014 mg/dL
  TC: 75.8 mg/dL
  TG: 97 mg/dL
  TP: 5.7 g/dL
  gamma-GTP: 1 IU/L
[…], time 7 day
  TERMINAL_BW: 251.3 g
  APTT: 22.9 s
  Bas: 0%
  Eos: 0.6%
  Fbg: 294.6 mg/dL
  Hb: 13.6 g/dL
  Ht: 39%
  Lym: 81.4%
  MCH: 20.7 pg
  MCHC: 34.8%
  MCV: 59.5 fL
  Mono: 2%
  Neu: 15%
  PT: 15.6 s
  Plat: 119.6 x10_4/uL
  RBC: 656.8 x10_4/ul
  Ret: 5.1%
  WBC: 75.9 x10_2/uL
  KIDNEY_L: 1.1 g
  KIDNEY_R: 1.1 g
  KIDNEY_TOTAL: 2.1 g
  LIVER: 11.2 g
  A/G: 1.3
  ALP: 1660 IU/L
  ALT: 40.4 IU/L
  AST: 71.2 IU/L
  BUN: 18 mg/dL
  CRE: 0.2 mg/dL
  Ca: 10.7 mg/dL
  Cl: 106.6 meq/L
  DBIL: 0 mg/dL
  GLC: 189.2 mg/dL
  IP: 6.7 mg/dL
  K: 4.1 meq/L
  LDH: 219.2 IU/L
  Na: 142.6 meq/L
  PL: 155.2 mg/dL
  RALB: 3 g/dL
  TBIL: 0.004 mg/dL
  TC: 72.2 mg/dL
  TG: 138 mg/dL
  TP: 5.4 g/dL
  gamma-GTP: 1.4 IU/L
[…], time 14 day
  TERMINAL_BW: 305.9 g
  APTT: 22.6 s
  Bas: 0%
  Eos: 1%
  Fbg: 308.2 mg/dL
  Hb: 15.1 g/dL
  Ht: 41.2%
  Lym: 79.4%
  MCH: 21.6 pg
  MCHC: 36.6%
  MCV: 59 fL
  Mono: 2%
  Neu: 16.4%
  PT: 16.1 s
  Plat: 118 x10_4/uL
  RBC: 699.2 x10_4/ul
  Ret: 5%
  WBC: 125 x10_2/uL
  KIDNEY_L: 1.2 g
  KIDNEY_R: 1.3 g
  KIDNEY_TOTAL: 2.5 g
  LIVER: 13.3 g
  A/G: 1.1
  ALP: 1709.2 IU/L
  ALT: 40 IU/L
  AST: 71.4 IU/L
  BUN: 20 mg/dL
  CRE: 0.2 mg/dL
  Ca: 10.7 mg/dL
  Cl: 106.2 meq/L
  DBIL: 0 mg/dL
  GLC: 197.6 mg/dL
  IP: 6 mg/dL
  K: 4.2 meq/L
  LDH: 170.8 IU/L
  Na: 141.4 meq/L
  PL: 148.4 mg/dL
  RALB: 3.1 g/dL
  TBIL: 0.008 mg/dL
  TC: 75.4 mg/dL
  TG: 114.6 mg/dL
  TP: 5.7 g/dL
  gamma-GTP: 1.4 IU/L
[…], time 28 day
  TERMINAL_BW: 397.2 g
  APTT: 24 s
  Bas: 0%
  Eos: 1%
  Fbg: 320.8 mg/dL
  Hb: 14.4 g/dL
  Ht: 40.5%
  Lym: 82.2%
  MCH: 19.4 pg
  MCHC: 35.5%
  MCV: 54.7 fL
  Mono: 1.8%
  Neu: 13.5%
  PT: 15.9 s
  Plat: 100.5 x10_4/uL
  RBC: 741 x10_4/ul
  Ret: 3.1%
  WBC: 119.2 x10_2/uL
  KIDNEY_L: 1.5 g
  KIDNEY_R: 1.5 g
  KIDNEY_TOTAL: 3 g
  LIVER: 16.3 g
  A/G: 1.1
  ALP: 1031.5 IU/L
  ALT: 47.5 IU/L
  AST: 81.5 IU/L
  BUN: 17.5 mg/dL
  CRE: 0.2 mg/dL
  Ca: 10.3 mg/dL
  Cl: 104.5 meq/L
  DBIL: 0.0025 mg/dL
  GLC: 201.5 mg/dL
  IP: 6.9 mg/dL
  K: 4.1 meq/L
  LDH: 261 IU/L
  Na: 141 meq/L
  PL: 134.2 mg/dL
  RALB: 3 g/dL
  TBIL: 0.0025 mg/dL
  TC: 64.5 mg/dL
  TG: 116.5 mg/dL
  TP: 5.9 g/dL
  gamma-GTP: 1.5 IU/L
